Data taken from patent publication US10017767B2, “Targets in multiple myeloma and other disorders” (FONDAZIONE CENTRO SAN RAFFAELE, priority 2012, dated 2018).

Assays:
[1] = MTT viability assay, U266; format: cell-based; conditions: human, U266 multiple myeloma cells
Procedure: (§1) Viability of MM cells was evaluated by 3-[4,5-dimethylthiazol-2-yl]-2,5-diphenyltetrazolium bromide (MTT) colorimetric survival assay. MM cells (20,000-50,000) were plated in 100 μL medium. At the various time points (24-96 hours), 10 μL 5 mg/mL MTT were added to plated cells. After 4 hour incubation at 37° C., medium was discarded and 100 μL MTT stop solution (Isopropanonol with […] Hcl) used to dissolve MTT metabolic products. Absorbance was read at 570 nm and background was subtracted at 630 nm, using spectrophotometer SPECTRAMAX M2 machine and Softmax Pro v5 software. Cellular growth was estimated by cell counting in triplicates, excluding dead cells stained by trypan blue.

U266 MM cell line [2] = experiment: Apoptosis by Annexin V-FITC/PI staining, U266; format: cell-based
Procedure: (§2) In particular, cells were washed twice with room-temperature PBS, resuspended in 100 μL of Annexin binding buffer, and stained with specific antibodies for 20 minutes.

MM.1S cells [3] = experiment: Apoptosis by Annexin V-FITC/PI staining, MM.1S; format: cell-based, human
Procedure: as §2

ATM = experiment: CHK2 (Thr68) phosphorylation immunoblot in MM cells; format: cell-based
ABL1 = ABL1 cytoplasmic/nuclear localization by subcellular fractionation and Western blot in MM cell lines; format: cell-based; conditions: 2-10 μM; 1, 2, 6 and 24 hs; MM.1S, H929, UTMC-2, JJN-3, KMS-20
Procedure: (§3) MM cells were harvested and lysed using lysis buffer: 50 mMTris-HCl (pH 7.4), 150 mM NaCl, 1% NP-40, 5 mM EDTA, 5 mM NaF, 2 mM Na3VO4, 1 mM PMSF, 5 μg/mL leupeptine, and 5 μg/mL aprotinin. Nuclear extracts were prepared using Nuclear Extraction Kit (Panomics). Cell lysates were subjected to sodium dodecyl sulfate-polyacrylamide gel electrophoresis SDS-PAGE, transferred to nitrocellulose membranes, and immunoblotted with different antibodies: ATM, phospho-ATM (Ser1981), ATR, phospho-ATR (Ser428), CHK2, phospho-CHK2 (Thr68), CHK1, phospho-CHK1 (Ser296), p21, p53, phospho-p53 (ser127), STK4, LATS1, phospho-LATS1 (Ser909), phospho-ABL1 (Thr735), cleaved caspase 3, cleaved PARP, histone H3, SAPK/JNK, phospho-SAPK/JNK (Thr183/Tyr185), GM130, GAPDH, and α-tubulin (Cell Signaling); STK4, Nuclear Matrix Protein p84 (Abeam), p73 (BD), phospho-H2A.X (Ser139) (Millipore); as well as ABL1, BAX, Puma, Noxa, actin and nucleolin (Santa Cruz Biotechnology).

UTMC-2 cells [4] = conditions: doxorubicin 40 nM, 48 h, before treatment 19.1%
MM.1S and UTMC-2 = experiment: DNA damage markers and nuclear ABL1 in MM.1S and UTMC-2; format: cell-based, human; conditions: doxorubicin 40 nM
Procedure: as §3

MTT assay, UTMC-2 = format: cell-based, human; conditions: human, UTMC-2 multiple myeloma cells; UTMC-2; doxorubicin 40 nM, 48 h; read-out: cell viability by MTT assay
Procedure: as §1

UTMC-2 cells [5] = experiment: MTT assay, UTMC-2; format: cell-based, human; conditions: doxorubicin 40 nM, 48 hours
Procedure: as §1

YAP1, p73 = experiment: Western blot of YAP1, p73 and p73 targets in MM.1S and U266; format: cell-based
Procedure: as §3

[6] = MTT viability assay, MM.1S; format: cell-based, human; conditions: human, MM.1S multiple myeloma cells; MM.1S; doxorubicin 40 nM, 48 h; read-out: cell viability by MTT assay
Procedure: as §1

U266 cell line = experiment: MTT viability assay, U266; format: cell-based; conditions: 48 h
Procedure: as §1

U266 MM cell line [7] = experiment: DNA damage markers and ABL1 localization in U266; format: cell-based; conditions: doxorubicin 40 nM
Procedure: MM cells were harvested and lysed using lysis buffer: 50 mMTris-HCl (pH 7.4), 150 mM NaCl, 1% NP-40, 5 mM EDTA, 5 mM NaF, 2 mM Na3VO4, 1 mM PMSF, 5 μg/mL leupeptine, and 5 μg/mL aprotinin. Nuclear extracts were prepared using Nuclear Extraction Kit (Panomics). […]
15,000 cells from MM cell lines, PBMCs or MM patient samples were cytospun for 5 minutes at 350-500 rpm, fixed in 4% paraformaldehyde (PFA) for 15 minutes, washed three times with PBS, and incubated with 0.1M glycin for 10 minutes to quench PFA autofluorescence. […] The slides were then mounted with ProLong Gold Antifade Reagent (Invitrogen), and images were taken using a Zeiss microscope (Carl Zeiss) equipped with Hamamatsu ORCA-ER camera (Hamamatsu Photonics) and analyzed with ImageJ software. […]

[8] = MTT viability assay, KMS-20; format: cell-based; conditions: human, KMS-20 multiple myeloma cells, LACZ-transfected; read-out: 48 hour viability (MTT, normalized to LACZ+DMSO)
Procedure: as §1

KMS-20 cells = experiment: MTT viability assay, KMS-20; format: cell-based; conditions: KMS-20 YAP1-transfected; imatinib 10 μM from day 0
Procedure: as §1

MM.1S cells [9] = experiment: MTT viability assay, MM.1S; format: cell-based, human; conditions: MM.1S YAP1-transfected; imatinib 10 μM from day 0
Procedure: as §1

[10] = system: KMS-20 cells transfected with pLENTI4-YAP1-EGFP; experiment: Apoptosis by Annexin V-PE/7AAD on GFP-positive YAP1-transfected cells; format: cell-based; conditions: YAP1 reintroduced; with imatinib 10 μM
Procedure: Cellular counting was performed in triplicate for each condition, with trypan blue exclusion. Right panel: Apoptosis by Annexin V-PE/7AAD, gating on GFP-positive cells. The percentage of viable cells (Annexin V-PE-/7AAD-cells) is shown at 48 hours.
p-ENTR-YAP1-EGFP plasmid was kindly provided by Dr. Marius Sudol and subcloned into pLENTI4-V5DEST vector using GATEWAY strategy. p-LENTI4-LACZ vector was used as control. KMS-18, KMS-20, MM.1S, RPMI-8226 and UTMC-2 cells (5,000,000) cells were transiently transfected with p-LENTI4 YAP1, using ‘Cell Line Nucleofector Kit V (Amaxa Biosystems, Köln, Germany), according to the manufacturer's instructions. AMAXA program: MM.1S→T-030; RPMI-8226→C-015; KMS-18, KMS-20 and UTMC-2→X-001. Specifically, 5×10^6 cells were resuspended in 100 μL V solution and 2500 ng of plasmid. Following transfection, MM cells were subjected to mRNA analysis, Western blotting, as well as apoptosis, cell counting, and MTT assays.
In particular, cells were washed twice with room-temperature PBS, resuspended in 100 μL of Annexin binding buffer, and stained with specific antibodies for 20 minutes. After adding other […] of Annexin binding buffer, samples were acquired using FACS Canto II machine from Becton Dickinson, BD, and analyzed with FCS EXPRESS 4 Flow Research Edition software.

MM.1S MM cells = experiment: MM.1S xenograft mouse model with inducible STK4 knockdown; format: in vivo, Fox Chase SCID mice; conditions: subcutaneous, 6 weeks; scrambled shRNA tumors 1965 mm^3
Procedure: A genetic approach conditionally knocking down STK4 in MM.1S cells was performed. In this study, MM.1S MM cells were infected with either inducible scrambled shRNAs, or inducible pLKO.1-TET shRNA #4 and pTRIPZ 63 directed against STK4 and then injected subcutaneously into three sites (left and right flank and interscapular region) in a group of 12 Fox Chase SCID mice.

YAP1 = YAP1 knockdown by lentiviral shRNA; format: cell-based
Procedure: Lentiviral short hairpin RNAs (shRNA) were used to knockdown YAP1 and STK4 expression in MM cells. Scrambled control pLKO.1 shRNA vectors and specific YAP1 and STK4 shRNA constructs were kindly provided by Dr. William Hahn (Dana-Farber Cancer Institute).
The efficacy of each shRNA in silencing gene expression was tested in HCT-116 and HeLa cell lines using Mirus Bio Trans-IT LT1 transfection reagent. To obtain stable silenced clones with YAP1/STK4 shRNA or pLKO.1 control plasmid, the following protocol was used. 293T cells were plated (300,000 cells on 6-cm plates) in DMEM/10% FBS/0.1% P/S. After 24 hours when cells were 60-70% confluent, 1000 ng of vector of interest together with 100 ng p-VSV-G and 900 ng delta 8.94 (both packaging vectors purchased from Addgene) were co-transfected with MIRUS BIO TransIT-LT1 diluted in OPTI-MEM (GIBCO). After 12 hours, 293T media was changed with DMEM/[…] to promote viral production. 24 and 48 hours post transfection, supernatant containing lentiviral particles was harvested, filtered with 0.45 μM diameter filter, and used to infect 2.5×10^6 MM cells. […] After the second cycle of infection, cells were put under selection with a suitable concentration of puromycin. mRNA and protein expression were evaluated 48 and 72 hrs after selection. […]

CCOc1cc2ncc(C#N)c(Nc3ccc(OCc4ccccn4)c(Cl)c3)c2cc1NC(=O)/C=C/CN(C)C [HKI-272]
viability at 24 h, 10 µM ([1]; 10 μM, 24 h, read-out: 24 hour viability (MTT, normalized to DMSO)): 98.2%
viability at 48 h, 10 µM ([1]; 10 μM, 48 h, read-out: 48 hour viability (MTT, normalized to DMSO)): 87.8%
viability at 72 h, 10 µM ([1]; 10 μM, 72 h, read-out: 72 hour viability (MTT, normalized to DMSO)): 56.9%
viability at 96 h, 10 µM ([1]; 10 μM, 96 h, read-out: 96 hour viability (MTT, normalized to DMSO)): 17.9%
apoptosis (Annexin V-PI) (U266 MM cell line [2]; 10 μM, untreated 10%): 43%
apoptosis (Annexin V-FITC/PI) (MM.1S cells [3]; 10 μM, untreated 11%): 67%

O=c1cc(-c2cccc3c2Sc2ccccc2S3)oc(N2CCOCC2)c1 [Ku55933]
CHK2 phosphorylation at Thr68 (ATM): reduction in CHK2 phosphorylation at Thr68
cytoplasmic and nuclear ABL1 levels (ABL1): increase in the levels of cytoplasmic ABL1, and a concomitant strong reduction of nuclear ABL1

COc1cccc2c1C(=O)c1c(O)c3c(c(O)c1C2=O)C[C@@](O)(C(=O)CO)C[C@@H]3O[C@H]1C[C@H](N)[C@H](O)[C@H](C)O1 [doxorubicin]
apoptosis (Annexin V-FITC/PI) (UTMC-2 cells [4]): 57.8%
γ-H2AX, pATM, pJNK and nuclear ABL1 (MM.1S and UTMC-2): increase in γ-H2AX, pATM, and pJNK was evident, along with a major increase in nuclear ABL1
viability at 48 h, 40 nM (MTT assay, UTMC-2): 66.5%
percentage of apoptotic cells by MTT assay (UTMC-2 cells [5]; UTMC-2 control cells): 37.4%
percentage of apoptotic cells by MTT assay (UTMC-2 cells [5]; UTMC-2 stably YAP1-silenced): 15.8%
YAP1 and p73 protein levels (YAP1, p73; doxorubicin 40 nM): induced YAP1, as well as p73
viability at 48 h, 40 nM [6]: 33.3%
viable cells (MTT assay) (U266 cell line; doxorubicin 40 nM): 52.8%
viability at 48 h, 40 nM ([1]; doxorubicin 40 nM, 48 h, read-out: viable cells (MTT assay)): 50%
apoptotic cells (Annexin V and PI staining) (U266 MM cell line [2]; doxorubicin 40 nM, 48 h, before treatment 13.1%): 40.1%
apoptosis (Annexin V-FITC/PI) (MM.1S cells [3]; doxorubicin 40 nM, 48 h, before treatment 12.4%): 55.3%
ABL1 localization (U266 MM cell line [7]): ABL1 moved to the nuclear compartment
γ-H2A.X foci, pATM and pJNK phosphorylation (U266 MM cell line [7]): induced multiple γ-H2A.X foci and strong pATM and pJNK phosphorylation

Cc1ccc(NC(=O)c2ccc(CN3CCN(C)CC3)cc2)cc1Nc1nccc(-c2cccnc2)n1 [imatinib]
viability at 48 h, 10 µM [8]: 103%
48 hour viability (MTT, normalized to LACZ+DMSO) (KMS-20 cells): 96.7%+8.9
YAP1, p73 and p73-target expression triggered by DNA-damaging agents (YAP1, p73; doxorubicin 40 nM with imatinib 10 μM): stifled the increase in YAP1, p73 and p73-target expression
48 hour viability (MTT, normalized to LACZ+DMSO) (MM.1S cells [9]): 86.1%±20.6
viability at 10 µM (U266 cell line; Homo sapiens, U-266, 48 h, doxorubicin 40 nM with imatinib 10 μM, doxorubicin alone 52.8%): 78.5%
apoptotic cells after reintroduction of YAP1 [10]: 9.1%

pLKO.1-TET shRNA #4: inducible shRNA directed against STK4; clone #4 target sequence GCCAAGCGGAATACAGTGATA (the letters are possibly those of the target site)
xenograft tumor growth (MM.1S MM cells): no growth was evident

shRNA #1: lentiviral shRNA targeting YAP1, CCCAGTTAAATGTTCACCAAT
knockdown of YAP1 (YAP1): robust knockdown of YAP1

shRNA #3: lentiviral shRNA targeting YAP1, CAGGTGATACTATCAACCAAA (the letters are possibly those of the target site)
knockdown of YAP1 (YAP1): robust knockdown of YAP1
